Measured values: patent publication US5629298A, “Adenosine as a positive inotrop in the compromised heart” (University of Massachusetts Medical Center, priority 1995, dated 1997)

Legend:
[1] = system: cultured ventricular myocytes; assay: cAMP content of cultured ventricular myocytes (125I-cAMP RIA); format: cell-based, rat; conditions: 1 μM DMPX (FIG. 12)
Method: When myocytes were to be used for biochemical studies, each of the culture dishes was preincubated for 2 hours with 1 ml of MEM containing 33 μg of laminin in a 37° C. incubator gassed with 5% CO2 in room air. The laminin solution was removed prior to myocyte seeding. After seeding, the dishes were incubated for an additional 2 hours. The settling and short term culture procedures were performed to purify the myocytes so that >95% of the myocytes adhering to the dishes were rod shaped.
Cyclic AMP levels were determined in cultures of ventricular myocytes according to the following method. After the 2-hour incubation period, the MEM was aspirated and replaced with 2 ml of fresh MEM. Adenosine agonists, ISO, or adenosine antagonists were added to the medium bathing the cells at the concentrations and times indicated. The experiment was terminated by removing the medium from the dish and adding 200 μl of 1N HCl over the cultured myocyte surface. The dishes were then frozen in liquid N2 and stored at -70° C. or held on ice momentarily until extraction was initiated.
For assay, the contents of the dishes were transferred (using 1 ml of distilled/deionized H2 O) into microcentrifuge tubes. The extracts were heated for 1 hour at 57° C. and sonicated for 10 minutes. The extracts were then centrifugated at 14,000 x g for 15 minutes. The supernatant was removed, evaporated, reconstituted in 500 μl of 50 mM sodium acetate buffer and assayed for cAMP using an ^125 I-cAMP RIA kit (Amersham). The pellet was solubilized with 0.1N NaOH and protein determined. The cAMP values are reported in pmol cAMP/mg protein of the extract pellet (total cell protein). This cAMP assay procedure routinely provided recovery values in excess of 90%.

rat ventricular myocytes = assay: Contractile function of individual ventricular myocytes (line scan camera edge detection, paced at 0.5 Hz); format: cell-based
Method: Primary cultures of adult rat ventricular myocytes were prepared essentially according to previously described methods (Romano et al., Am. J. Physiol. 257:H1088 (1989)). Two male Sprague-Dawley rats (Charles River, Wilmington, Mass. or Harlan, Indianapolis, Ind.) were decapitated, and the hearts were rapidly excised and constant pressure (70 cm H2) and nonrecirculated) perfused for 10 minutes through the aortas with filtered (0.45 μm membrane filter) perfusing solution (NaCl, 118 mM; glucose, 10 mM; NaHCO3 25 mM; KCl, 4.69 mM; MgSO4 1.18 mM; and KH2 PO4, 1.18 mM; (pH 7.4)), to which […] was added, at 37° C. After equilibration, the hearts were constant pressure perfused with fresh physiological saline ("PS") containing no added Ca^2+ until spontaneous contractions ceased (i.e., ~30 seconds). The hearts were then perfused for 4-10 minutes in a nonrecirculating manner with PS containing 0.73 mg/ml collagenase, 0.16 mg/ml hyaluronidase, 1 mg/ml recrystallized bovine serum albumin ("BSA") and 48.4 μM Ca^2+ at a rate of 3-4 ml/min/heart. Ventricles, free of atria, were removed from the perfusion system, cut into 8 pieces and placed in a 50 ml Erlenmeyer flask with 5 ml of PS containing 0.73 mg/ml collagenase, 0.16 mg/ml hyaluronidase, 2.5 mg/ml BSA, and 50 μM Ca^2+ (incubation solution). The flask was gently shaken (40 cycles/min) in a reciprocating water bath with continuous gassing (95% O2, 5% CO2) for 7 minutes at 37° C. The incubation solution was aspirated and this shaking procedure was repeated with fresh incubation solution 3-5 times depending on the likelihood that the tissue was ready to dissociate. After the final incubation period, the solution was aspirated and replaced with 10 ml of fresh incubation solution. The flask was then shaken rapidly (120 cycles/min) for 10 minutes with gassing to dissociate the myocytes. The flask contents were filtered through a 250 μm nylon mesh into a 50 ml polypropylene centrifuge tube, to which 40 ml of PS containing 5.95 mg/ml BSA and 99.7 μm Ca^2+ (wash solution) was gradually added.
The myocytes were allowed to settle for 15 minutes, and the upper two thirds of the wash solution was aspirated. Upon the addition of 30-35 ml of wash solution, this settling step was repeated. The wash solution was aspirated and the myocyte pellet was resuspended in 10 ml of minimum essential medium ("MEM"). The myocyte suspension was allowed to settle for 5 minutes and then brought to a final volume of 22 ml with MEM. Two milliliters of the myocyte suspension was seeded onto each of 60 mm culture dishes containing 2 ml of MEM.
The contractile function of individual myocytes was assessed by dispersing 50-100 cells in a 506 μl myocyte chamber (11×23×2 mm deep). The chamber (FIG. 1) was continuously suffused (850 μl/min) with fresh suffusion solution ("SS") in mM: 136.4 NaCl, 4.7 KCl, 1.0 CaCl2, 10 hydroxyethylpiperzine-ethanesulfonicacid (HEPES), 1.0 NaHCO3, 1.2 MgSO4, 1.2 KH2 PO4, 10 glucose, 0.6 ascorbate, 1.0 pyruvate) at 20° C. The chamber was mounted on an inverted microscope stage and contained platinum wire electrodes for initiating myocyte contraction at 0.5 Hz (voltage 10% above threshold for 5 msec duration).
The image of the myocyte was projected via an inverted microscope at 300× onto a line scan camera (Fairchild, Model 1600R) containing a linear array (1×3456) of photodiodes. When aligned with the longitudinal axis of the cell the camera detected the movement of the 2 ends of the myocyte upon contraction (shortening and relengthening). […] When the myocyte was transilluminated, both ends of the cell were easily discriminated. Myocyte length and length change with respect to time for a single contraction was measured by determining the pixels in which the appropriate transitions between light and dark occurred. The line scan camera was calibrated with a stage micrometer scaled in 10 μm divisions. The signals from the camera were directed to a Hewlett Packard computer (Model Vectra RS/20C). […]

[2] = system: ventricular myocyte membrane adenylyl cyclase; assay: Adenylyl cyclase activity of ventricular myocyte membranes; format: biochemical, rat; conditions: DPCPX at 0.1 μM
Method: After a 3-4 hour incubation period, myocytes were harvested by placing the culture dishes on ice; aspirating and discarding the culture medium; scraping the attached cells into 1 ml of ice cold buffer (pH 7.4) containing 10 mM HEPES and 1 mM dithiothreitol (DTT); and transferring the mixture to a 40 ml centrifuge tube. The culture dishes were rinsed twice with buffer, and the rinses were added to the centrifuge tube. The myocytes were centrifuged at 45,000 x g for 45 minutes and the supernatant was discarded. The pellet was resuspended in 40 mM HEPES (pH 7.4) to yield 3.5-4 mg protein/ml and homogenized with a small clearance Dounce tissue grinder (8 strokes). The membranes were centrifugated as described above, resuspended (3-4 mg protein/ml) in 40 mM HEPES (pH 7.4), and assayed for adenylyl cyclase activity immediately or stored at -80° C. and assayed within 10 days.
The assay system used to measure adenylyl cyclase activity minimizes the formation of endogenous adenosine. The assay used was essentially as described by Romano et al. (supra). Myocyte membranes (15-25 μg protein) were incubated in 50 μl of a buffer containing 40 mM HEPES (pH 7.4), 5 mM MgCl2, 1 mM DTT, 5.5 mM KCl, 0.1 mM 2'-deoxy-cAMP (dcAMP), 0.1 mM 2'-deoxy ATP (dATP), 20 mM phosphoenolpyruvate, 2 units pyruvate kinase, 0.25 units adenosine deaminase, 1 mM ascorbic acid, 100 mM NaCl, 0.1 mM ethyleneglycol-bis (β-aminoethylether) N,N,N',N',-tetroaceticacid (EGTA), 10 μM guanosine 5'-triphosphate (GTP), and ~2×10^6 counts/minutes of [α-^32 P]dATP for 20 minutes at 30° C. The reaction was stopped by adding 40 μl of a solution containing 2% sodium dodecyl sulfate (SDS), 45 mM ATP, 1.3 mM cAMP, and [^3 H]dcAMP (~4000 count/min) and by boiling for 2 minutes.

[3] = Table 6, 10^-5 M SHA-082, 10^-5 M NECA, 10^-4 M adenosine, 2 × 10^-7 M DPCPX, 10^-5 M CGS-15943, mean ± SE, N = 6
[4] = addition of 0.1 μM DPCPX to 1 μM PIA + 0.1 μM ISO

| effect on the PIA inhibition of ISO stimulated adenylyl cyclase activity [2] | SMILES | effect on the increase in cAMP caused by 10 μM CGS-21680 [1] | effect on myocyte contractility when administered alone (rat ventricular myocytes; 100 μM adenosine or 0.2 μM DPCPX) | effect on the PIA reduction of the ISO induced contractile responses (rat ventricular myocytes; DPCPX at 0.2 μM, ISO 0.2 μM, PIA 2 μM) | +dL/dtmax, maximal rate of shortening (rat ventricular myocytes; [3]) | -dL/dtmax, maximal rate of relaxation (rat ventricular myocytes; [3]) | DS, duration of shortening (rat ventricular myocytes; [3]) | LC, maximum length change (shortening) with contraction (rat ventricular myocytes; [3]) | TPS, time-to-peak shortening (rat ventricular myocytes; [3]) | TR, time to 75% relaxation (rat ventricular myocytes; [3]) | further increase of the ISO induced enhancement in +dL/dtmax (rat ventricular myocytes; [4]) | further increase of the ISO induced enhancement in LC (rat ventricular myocytes; [4]) | lowering of DS below that observed in the presence of PIA+ISO (rat ventricular myocytes; [4]) |
| --- | --- | --- | --- | --- | --- | --- | --- | --- | --- | --- | --- | --- | --- |
| – | C#CCn1c(=O)c2c(ncn2C)n(C)c1=O [DMPX, 3,7-dimethyl-1-propargylxanthine] | prevented | – | – | – | – | – | – | – | – | – | – | – |
| prevented | CCCn1c(=O)c2[nH]c(C3CCCC3)nc2n(CCC)c1=O [DPCPX, 1,3-dipropyl-8-cyclopentylxanthine] | – | without effect | reversed | 179 ± 9 μm/msec | 147 ± 11 μm/msec | 279 ± 15 ms | 17 ± 1 μm | 116 ± 3 ms | 264 ± 11 ms | 40% | 26% | 27% |
